According to patent US20160115540A1, “PRODRUGS AND DRUGS” (Biogen MA Inc., priority 2013, published 2016):
Structures can show the parent of a compound that is named as a salt.

Test system: spleen
Experiment: Transcriptional profiling, chronic dosing, EAE mice: spleen
Format: in vivo
Conditions: for Number of differentially expressed genes identified: Spleen: EAE, Chronic Dosing
Protocol: 2011 March 134(Pt3): 678-92. […] FIG. 17 depicts exemplary immunophenotyping panels used to analyze various immune cell populations (e.g., T cells, T regulatory cells, NK cells, B cells, myeloid cells). […] Animals were exposed to CO2 and whole blood collected via cardiac puncture. Two 100 μl aliquots of whole blood were collected in 1.5 mL microcentrifuge tubes and snap frozen in liquid nitrogen. Peripheral (liver, spleen, kidney and jejunum) and CNS brain (cerebellum, hippocampus, striatum and cortex) tissues were harvested and snap frozen in liquid nitrogen, with special care taken to collect tissues of similar size and from the same location. All samples were stored at -80° C. until RNA extraction was conducted. For RNA preparation, frozen tissues were placed in 2 mL RNAse-free 96-well blocks with 1.5 mL QIAzol Lysis Reagent (QIAgen) and a 3.2 mm stainless steel bead (BioSpec Products, Bartlesville, Okla.). Tissues were disrupted for four cycles of 45 seconds in a Mini-Beadbeater (Biospec Products). RNA was extracted in chloroform and the aqueous phase was mixed with an equal volume of 70% ethanol. Extracted RNA was applied to RNeasy 96 plates and purified by the spin method according to the manufacturer's protocol (RNeasy 96 Universal Tissue Protocol, QIAgen, Hilden Germany). […] Washing and staining of the hybridized arrays were completed as described in the GeneChip Expression analysis technical manual for HT plate arrays using the Genechip® Array Station (Affymetrix, Santa Clara, Calif.) with modifications as described in […] et al. The processed GeneChip® plate arrays were scanned using GeneTitan scanner (Affymetrix, Santa Clara, Calif.). Affymetrix scans were subject to quality control (QC) measures. These tests included a visual inspection of the distribution of raw signal intensities and an assessment of RNA degradation, relative log expression (RLE), and normalized unscaled standard error (NUSE). All sample scans that passed these QC metrics were included in the analysis. All CEL files were subjected to GC-content-based Robust Multi-array Average (GCRMA) normalization (version 2.20.0) (Irizarry R A, et al. Nucleic Acids Res 2003; 31:e15; Li C, et al. Genome Biol 2001; 2:[…]0032). […] Stat Appl Genet Mol Biol 2004; 3:Article3). […] Springer Science+Business Media 2005).

`COC(=O)/C=C/C(=O)OC` [DMF, dimethyl fumarate] was tested. Which “Number of differentially expressed genes identified: Spleen” value (from here on “Number of differentially”) (100 mpk DMF-vs-90 mpk MMF, 7 h after last dosing) did it give?
The value was 3.

What about the “Number of differentially” value (100 mpk DMF-vs-90 mpk MMF, 12 h after last dosing) of the same compound?
The value was 4.

And the “Number of differentially” value (100 mpk DMF-vs-Vehicle, 7 h after last dosing)?
The value was 12.

And the “Number of differentially” value (100 mpk DMF-vs-Vehicle, 12 h after last dosing)?
The value was 7.

And the “FC Ear1 (1421802_PM_at)” value (spleen, 100DMF-vs-90MMF, 7 h)?
The value was −3.57.

What about the “FC Epx (1449136_PM_at)” value (spleen, 100DMF-vs-90MMF, 7 h) of the same compound?
Its value is −3.20.

What about the “FC Prg2 (1422873_PM_at)” value (spleen, 100DMF-vs-90MMF, 7 h) of the same compound?
The value was −2.10.

What about the “FC Angptl4 (1417130_PM_s_at)” value (spleen, 100DMF-vs-90MMF, 12 h) of the same compound?
Its value is 1.97.

What about the “FC Zbtb16 (1419874_PM_x_at)” value (spleen, 100DMF-vs-90MMF, 12 h) of the same compound?
The value was 1.95.

What about the “FC Zbtb16 (1442025_PM_a_at)” value (spleen, 100DMF-vs-90MMF, 12 h) of the same compound?
The value was 2.29.

And the “FC Zbtb16 (1442026_PM_at)” value (spleen, 100DMF-vs-90MMF, 12 h)?
The value was 2.36.

What about the “FC 4930519L02Rik (1454269_PM_s_at)” value (spleen, 100DMF-vs-Veh, 7 h) of the same compound?
The value was 1.66.

And the “FC Adamts4 (1455965_PM_at)” value (spleen, 100DMF-vs-Veh, 7 h)?
The value was −1.51.

What about the “FC Aox1 (1419435_PM_at)” value (spleen, 100DMF-vs-Veh, 7 h) of the same compound?
Its value is 1.88.

And the “FC Gsta3 (1423436_PM_at)” value (spleen, 100DMF-vs-Veh, 7 h)?
Its value is 2.02.

What about the “FC Gsta3 (1423437_PM_at)” value (spleen, 100DMF-vs-Veh, 7 h) of the same compound?
Its value is 1.94.

What about the “FC LOC677317 /// Me1 1416632_PM_at” value (spleen, 100DMF-vs-Veh, 7 h) of the same compound?
Its value is 1.61.

And the “FC Nqo1 (1423627_PM_at)” value (spleen, 100DMF-vs-Veh, 7 h)?
Its value is 2.27.

What about the “FC Pir (1429001_PM_at)” value (spleen, 100DMF-vs-Veh, 7 h) of the same compound?
Its value is 2.74.

And the “FC Srxn1 (1419942_PM_at)” value (spleen, 100DMF-vs-Veh, 7 h)?
The value was 2.31.

And the “FC Srxn1 (1426875_PM_s_at)” value (spleen, 100DMF-vs-Veh, 7 h)?
The value was 2.29.

And the “FC Srxn1 (1451680_PM_at)” value (spleen, 100DMF-vs-Veh, 7 h)?
Its value is 2.14.

And the “FC Steap4 (1425829_PM_a_at)” value (spleen, 100DMF-vs-Veh, 7 h)?
The value was −1.88.

And the “FC Dbp (1418174_PM_at)” value (spleen, 100DMF-vs-Veh, 12 h)?
The value was −1.65.

What about the “FC Dbp (1438211_PM_s_at)” value (spleen, 100DMF-vs-Veh, 12 h) of the same compound?
Its value is −1.78.

And the “FC Ighg (1424631_PM_a_at)” value (spleen, 100DMF-vs-Veh, 12 h)?
Its value is −1.52.

What about the “FC Srxn1 (1419942_PM_at)” value (spleen, 100DMF-vs-Veh, 12 h) of the same compound?
Its value is 1.85.

What about the “FC Srxn1 (1426875_PM_s_at)” value (spleen, 100DMF-vs-Veh, 12 h) of the same compound?
Its value is 1.90.

And the “FC Srxn1 (1451680_PM_at)” value (spleen, 100DMF-vs-Veh, 12 h)?
Its value is 1.60.

What about the “Zbtb16 transcript signal, DMF-treated compared to MMF-treated animals” value (spleen, chronically dosed EAE mice, 12 h after final dosing) of the same compound?
Its value is “increased signal”.

How did the “Number of differentially” value (90 mpk MMF-vs-Vehicle, 7 h after last dosing) turn out when `COC(=O)/C=C/C(=O)O` [MMF, monomethyl fumarate] was run?
Its value is 23.

What about the “Number of differentially” value (90 mpk MMF-vs-Vehicle, 12 h after last dosing) of the same compound?
The value was 9.

And the “FC 1441413_PM_at (no gene symbol)” value (spleen, 100MMF-vs-Veh, 7 h)?
Its value is 1.54.

What about the “FC 1451626_PM_x_at (no gene symbol)” value (spleen, 100MMF-vs-Veh, 7 h) of the same compound?
Its value is 1.55.

What about the “FC 2810037O22Rik (1428866_PM_at)” value (spleen, 100MMF-vs-Veh, 7 h) of the same compound?
The value was −1.88.

And the “FC 4930519L02Rik (1454269_PM_s_at)” value (spleen, 100MMF-vs-Veh, 7 h)?
Its value is 1.78.

What about the “FC Aox1 (1419435_PM_at)” value (spleen, 100MMF-vs-Veh, 7 h) of the same compound?
Its value is 1.91.

What about the “FC Cacnb3 (1448656_PM_at)” value (spleen, 100MMF-vs-Veh, 7 h) of the same compound?
Its value is −1.58.

And the “FC Figf /// LOC100047108 (1438953_PM_at)” value (spleen, 100MMF-vs-Veh, 7 h)?
Its value is 1.57.

What about the “FC Gsta3 (1423436_PM_at)” value (spleen, 100MMF-vs-Veh, 7 h) of the same compound?
Its value is 1.74.

What about the “FC Gsta3 (1423437_PM_at)” value (spleen, 100MMF-vs-Veh, 7 h) of the same compound?
The value was 1.61.

What about the “FC Higd1c /// Mettl7a1 /// Mettl7a2 1434150_PM_a_at” value (spleen, 100MMF-vs-Veh, 7 h) of the same compound?
The value was 1.57.

What about the “FC Kcnh1 (1435994_PM_at)” value (spleen, 100MMF-vs-Veh, 7 h) of the same compound?
Its value is −1.60.

What about the “FC Lmcd1 1424596_PM_s_at” value (spleen, 100MMF-vs-Veh, 7 h) of the same compound?
The value was −1.74.

And the “FC Mmp16 (1437568_PM_at)” value (spleen, 100MMF-vs-Veh, 7 h)?
The value was −1.56.

What about the “FC Nqo1 (1423627_PM_at)” value (spleen, 100MMF-vs-Veh, 7 h) of the same compound?
The value was 2.35.

And the “FC Pdk4 (1417273_PM_at)” value (spleen, 100MMF-vs-Veh, 7 h)?
Its value is 1.68.

What about the “FC Pir (1429001_PM_at)” value (spleen, 100MMF-vs-Veh, 7 h) of the same compound?
The value was 2.67.

What about the “FC Socs3 (1416576_PM_at)” value (spleen, 100MMF-vs-Veh, 7 h) of the same compound?
Its value is −1.79.

What about the “FC Srxn1 (1419942_PM_at)” value (spleen, 100MMF-vs-Veh, 7 h) of the same compound?
The value was 2.29.

And the “FC Srxn1 (1426875_PM_s_at)” value (spleen, 100MMF-vs-Veh, 7 h)?
Its value is 2.26.

What about the “FC Srxn1 (1451680_PM_at)” value (spleen, 100MMF-vs-Veh, 7 h) of the same compound?
The value was 2.05.

And the “FC Steap4 (1425829_PM_a_at)” value (spleen, 100MMF-vs-Veh, 7 h)?
The value was −1.91.

What about the “FC Steap4 (1460197_PM_a_at)” value (spleen, 100MMF-vs-Veh, 7 h) of the same compound?
The value was −2.48.

And the “FC Txnrd1 (1424486_PM_a_at)” value (spleen, 100MMF-vs-Veh, 7 h)?
The value was 1.69.

What about the “FC 2810037O22Rik (1428866_PM_at)” value (spleen, 100MMF-vs-Veh, 12 h) of the same compound?
The value was −1.55.

And the “FC Dbp (1418174_PM_at)” value (spleen, 100MMF-vs-Veh, 12 h)?
The value was −1.85.

What about the “FC Dbp (1438211_PM_s_at)” value (spleen, 100MMF-vs-Veh, 12 h) of the same compound?
Its value is −1.90.

And the “FC Dclre1a (1432097_PM_a_at)” value (spleen, 100MMF-vs-Veh, 12 h)?
The value was 1.56.

And the “FC Nqo1 (1423627_PM_at)” value (spleen, 100MMF-vs-Veh, 12 h)?
The value was 2.05.

What about the “FC Nr1d1 (1426464_PM_at)” value (spleen, 100MMF-vs-Veh, 12 h) of the same compound?
The value was −1.76.

And the “FC Nr1d2 (1416958_PM_at)” value (spleen, 100MMF-vs-Veh, 12 h)?
The value was −1.53.

And the “FC Srxn1 (1419942_PM_at)” value (spleen, 100MMF-vs-Veh, 12 h)?
Its value is 1.73.

And the “FC Srxn1 (1426875_PM_s_at)” value (spleen, 100MMF-vs-Veh, 12 h)?
The value was 1.75.
